Reference: patent publication US20240384344A1, “METHOD FOR LABELING CELLS” (RIKEN, priority 2022, published 2024)

Key:
[1] = target: mouse E-cadherin (CDH1) (mouse) (UniProt P09803); test: flow cytometry, differentiated R1 ES cells (only a part of them expresses CDH1), biotinylated anti-CDH1 antibody then PE-conjugated TotalSeq streptavidin
[2] = target: mouse E-cadherin (CDH1) (mouse) (UniProt P09803); test: flow cytometry, undifferentiated mouse R1 ES cells, biotinylated anti-CDH1 antibody then PE-conjugated TotalSeq streptavidin
[3] = Storage stability of S-NHS-biotin stock solution; type: physicochemical; conditions: stock solution at −80° C.
Method: A S-NHS-biotin stock solution was prepared by dissolving EZ-Link sulfo-NHS-biotin (Thermo Fisher Scientific™, 21217) in PBS at a concentration of 10 mg/mL, and dispensed and stored at […] until use.

[4] = test system: differentiated ES cells (R1, embryoid body formation); test: Flow cytometry of labeling efficiency (PE-positive cells), USB method vs Ab method; type: cell-based, mouse; conditions: TotalSeq PE streptavidin detection
Method: After removing the feeder cells, 1×10^4 ES cells were seeded in 100 μL differentiation medium (GMEM supplemented with 15% FBS, 0.11 mg/mL sodium pyruvate, 0.1 mM 2-mercaptoethanol, 1×non-essential amino acid, and 1×GlutaMAX supplement) in a U-bottom 96-well low cell attachment plate (Nunclon Sphera 96-Well U-Shaped-Bottom Microplate; Thermo Fisher ScientificTM, 174925), and cultured for 24 hours. Spheroids made in the plate were transferred to a 90 mm, low cell attachment culture dish (Nunclon Sphera 90 mm dish, 174945), and cultured for further 4 days to form embryoid bodies (EBs). The EBs were washed three times with PBS, dissociated into […] CELLs (group of single cells) using 0.25% trypsin, the cells were seeded on a gelatin-treated culture dish, and cultured for 7 days to induce further differentiation. Single cells containing 0.5-2×10^6 […] CELLs prepared in “3. […] After incubation on ice, 3 mL ice-cold PBS containing 3% FBS was added to the reaction, and the cells were centrifuged at 4° C., 300 g for 5 minutes. The cells were further washed twice with Cell Staining Buffer (BioLegend, Inc., 420201), and then kept on ice until barcoded oligo DNA binding in the next step. […] The stained cells were analyzed by flow cytometry using EC800 Cell Analyzer (Sony Corporation), Cyto FLEX flow cytometer (Beckman Coulter, Inc.), or […] flow cytometer (BD Biosciences). […]

[5] = test system: undifferentiated ES cells; test: Cell viability test (colony formation); type: cell-based, mouse
Method: Undifferentiated ES cells were treated with 100 μg/mL S-NHS-biotin (10-fold the concentration used for multiplex scRNA-seq) and TotalSeq® PE streptavidin, and 3×10^3 cells were seeded on a 3.5 cm, gelatin-treated culture dish. Concurrently, the same number of untreated cells were seeded. After 5-day culture, the cells were stained with hematoxylin, and the colony formation ratios of untreated control and treated sample were examined.
A series of experimental operations by the USB method has a possibility to compromise cell states and growth. To examine this possibility, ES cells were treated by the USB method, and seeded on a culture dish to measure colony formation ability (FIG. 7). As a result, even though cells were treated with S-NHS-biotin at a concentration 10-fold the concentration used in the USB method (0.1 mg/mL), the difference of colony formation rates between the control group without labeling and the USB group were not observed. Consequently, the USB method was concluded to not change the cell viability.

[6] = test system: mouse growth plate chondrocytes; test: Flow cytometry of labeled growth plate chondrocytes; type: cell-based; conditions: mouse growth plate chondrocytes (FIG. 11)
Method: (§1) Specifically, healthy F344 rat lungs were cut into 0.5 mm^2 with razor blade, digested in a Liberase solution [RPMI-1640 (Natalai Tesque)] added with 10% FBS, 10 mM HEPES pH 7.2-7.4, 0.25 mg/ml Liberase™ (F. Hoffmann-La Roche Ltd.), and 2000 U/mL DNase I (Merck KGaA) for 60 minutes at 37° C. to prepare a SINGLE CELL suspension solution. Dead cells were removed by Percoll. Alternatively, growth plate cartilage from proximal tibia was collected from 3-week-old mice and cut finely into 1 to 2 mm pieces. Next, the cut pieces were dispersed into SINGLE CELLs (group of single cells) with Liberse™ (F. Hoffmann-La Roche Ltd.) solution for 120 to 210 minutes while continuously agitating.
(§2) Reagents for cell staining were biotinylated CDC324 (E-cadherin) rat monoclonal antibody (Thermo Fisher Scientific™, 13-3249-82), TotalSeq® PE streptavidin (BioLegend, Inc., 405251), PerCP-Cy5.5 anti-rat CD45 (Bio-Rad Laboratories, Inc., clone OX-1), PE anti-rat CD31 (Bio-Rad Laboratories, Inc., Clone TLD-3A12), streptavidin-APC (BioLegend, Inc., 405207), APC rat anti-mouse CD45 (BD Biosciences, 559864), and PE anti-mouse H-2 antibody (BioLegend, Inc., 125505).
(§3) The stained cells were analyzed by flow cytometry using EC800 Cell Analyzer (Sony Corporation), Cyto FLEX flow cytometer (Beckman Coulter, Inc.), or FACS Arria II flow cytometer (BD Biosciences).

[7] = test system: rat lung cells (CD31 positive, CD45 positive, double negative); test: Flow cytometry of USB labeling of fractionated lung cells (APC-labeled streptavidin); type: cell-based; conditions: CD45 positive and double negative fractions (FIG. 12)
Method: as §1, §2, §3

[8] = test system: undifferentiated mouse ES cells (R1 line); test: Flow cytometry of labeling efficiency (PE-positive cells), USB method vs Ab method; type: cell-based; conditions: TotalSeq PE streptavidin detection
Method: Single cells containing 0.5-2×10^6 […] CELLs prepared in “3. […] After incubation on ice, 3 mL ice-cold PBS containing 3% FBS was added to the reaction, and the cells were centrifuged at 4° C., 300 g for 5 minutes. The cells were further washed twice with Cell Staining Buffer (BioLegend, Inc., 420201), and then kept on ice until barcoded oligo DNA binding in the next step. Single cells containing 0.5-2×10^6 […] CELLs prepared in “3. […] An ice-cold primary antibody solution (0.05 μg/mL biotinylated CDC324 [E-cadherin] rat monoclonal antibody [Thermo Fisher ScientificTM, 13-3249-82]) was mixed with the cell suspension solution, and the cell was incubated on ice for 30 minutes. Next, the cells were washed three times with ice-cold Cell Staining Buffer, and then kept on ice until binding of barcoded DNA. […] The cell suspension solution was filtered through 40 μm cell strainer, the same number of cells from each sample was gathered in a single tube and used for cell trapping and cDNA synthesis using a BD RhapsodyTM apparatus. First, by the same method as in the above 1-3, SINGLE CELL suspension solutions of undifferentiated ES cells and differentiated ES cells were prepared. […] The stained cells were analyzed by flow cytometry using EC800 Cell Analyzer (Sony Corporation), Cyto FLEX flow cytometer (Beckman Coulter, Inc.), or […] flow cytometer (BD Biosciences). […]

UniProt P09803, sequence (P09803 157-884): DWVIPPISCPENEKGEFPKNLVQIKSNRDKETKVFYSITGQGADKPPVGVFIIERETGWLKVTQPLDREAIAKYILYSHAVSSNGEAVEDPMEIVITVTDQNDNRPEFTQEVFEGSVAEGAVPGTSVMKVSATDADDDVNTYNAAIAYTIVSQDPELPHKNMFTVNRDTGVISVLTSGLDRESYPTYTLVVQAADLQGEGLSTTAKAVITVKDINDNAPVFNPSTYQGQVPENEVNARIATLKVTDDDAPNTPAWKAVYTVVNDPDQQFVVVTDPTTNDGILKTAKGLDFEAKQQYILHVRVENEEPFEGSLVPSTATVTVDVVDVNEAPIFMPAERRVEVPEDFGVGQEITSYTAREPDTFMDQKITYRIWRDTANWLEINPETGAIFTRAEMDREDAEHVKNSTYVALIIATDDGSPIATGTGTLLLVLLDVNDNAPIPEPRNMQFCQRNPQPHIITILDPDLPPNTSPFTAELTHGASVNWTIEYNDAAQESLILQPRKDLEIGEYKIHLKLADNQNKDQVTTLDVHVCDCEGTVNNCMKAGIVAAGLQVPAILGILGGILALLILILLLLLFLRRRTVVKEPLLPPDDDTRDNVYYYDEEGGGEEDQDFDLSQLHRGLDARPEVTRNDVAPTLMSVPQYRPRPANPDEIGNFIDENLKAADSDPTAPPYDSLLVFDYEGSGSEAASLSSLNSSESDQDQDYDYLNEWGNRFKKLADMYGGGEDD

| percent PE-positive cells [1] [%] | percent PE-positive cells [2] [%] | Substance | time stock solution is stable [3] | percentage of PE-positive cells [4] [%] | difference of colony formation rates between the control group without labeling and the USB group ([5]; S-NHS-biotin 0.1 mg/mL (10-fold the concentration used in the USB method), 5-day culture) | effect on viability of undifferentiated ES cells ([5]; S-NHS-biotin treated vs control untreated cells (FIG. 7)) | labeling/staining of chondrocytes [6] | labeling of fractionated lung cells [7] | percentage of PE-positive cells [8] [%] |
| --- | --- | --- | --- | --- | --- | --- | --- | --- | --- |
| 9.9 | 87.8 | biotinylated CDC324 [E-cadherin] rat monoclonal antibody [Thermo Fisher Scientific, 13-3249-82] | – | – | – | – | – | – | – |
| – | – | sulfo-N-hydroxysuccinimide-biotin [S-NHS-biotin] | more than 1 year | 96.4 | not observed | does not affect the viability | efficiently labeled | All fractionated cells were found to have been labeled | 99.6 |
